Test results reported in US8633212B2, “Inhibitors of beta-secretase” (Vitae Pharmaceuticals, Inc., priority 2009, dated 2014).
Where two headings read alike, the source gives them in different places.

Legend:
[1] = target: truncated human beta-secretase (residues 1-458, His6-tagged at the C-terminus) (Homo sapiens (Human), UniProt P56817); experiment: BACE enzyme assay (fluorescence quench assay, Example 434A); type: biochemical
[2] = target: H4 neuroglioma cell line stably expressing APP with the KM-NL Swedish mutation (H4-APPsw); soluble Amyloid Beta 1-40 (Aβ 1-40) (Homo sapiens (Human), UniProt P56817); experiment: BACE cell assay: soluble Aβ 1-40 in culture media of H4-APPsw cells (AlphaLISA/ELISA); type: cell-based; details: in vitro cell activity; H4-APPsw cells treated overnight, secreted Aβ 1-40 in culture media
Sequence of H4 neuroglioma cell line stably expressing APP with the KM-NL Swedish mutation (H4-APPsw); soluble Amyloid Beta 1-40 (Aβ 1-40) (P56817 46-501 limits assumed, change not shown): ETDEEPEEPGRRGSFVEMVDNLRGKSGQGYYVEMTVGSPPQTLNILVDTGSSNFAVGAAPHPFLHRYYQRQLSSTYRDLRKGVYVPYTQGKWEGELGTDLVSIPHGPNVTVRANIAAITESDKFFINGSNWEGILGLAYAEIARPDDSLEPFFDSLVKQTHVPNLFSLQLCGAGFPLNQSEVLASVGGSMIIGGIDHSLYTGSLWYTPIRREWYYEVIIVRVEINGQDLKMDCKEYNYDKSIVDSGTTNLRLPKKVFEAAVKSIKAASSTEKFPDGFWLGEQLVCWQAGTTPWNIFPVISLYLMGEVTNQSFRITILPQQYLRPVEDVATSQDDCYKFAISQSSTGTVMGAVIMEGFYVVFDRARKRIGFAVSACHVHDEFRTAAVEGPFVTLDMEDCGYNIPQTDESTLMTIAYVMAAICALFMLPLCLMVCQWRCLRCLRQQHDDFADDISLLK
Experimental: H4 neuroglioma cell line that stably expresses Amyloid Precursor Protein (APP) containing the KM-NL Swedish mutation (H4-APPsw) was generated. For the assay, cells are treated overnight in the presence of inhibitor and the culture media are subjected to ELISA analysis of soluble Amyloid Beta 1-40 (Aβ 1-40).
Generation and Maintenance of H4-APPsw Cell Line
H4 neuroglioma cell line was cultured in DMEM with 10% FBS and 1% penicillin/streptomycin (Culture Medium) at 37° C., 5% CO2. […] 24 hrs after transfection, the cells were replaced into three new plates (150 mm) in fresh Culture Medium with 250 ug/mL Zeocin. […] The levels of APPsw expression were analyzed by immunoblotting and the production of Aβ 1-40 was detected by ELISA of culture supernatants. The selected clones are maintained in Culture Medium with 250 μg/mL Zeocin and routinely split in 3-4 days to maintain 20-80% confluence.
Final Assay Conditions (96-Well Plate)
Split H4-APPsw cells in Culture Medium and culture overnight such that cells will be ˜80% confluent next morning.
Create Compound Dilution Plate.
After determining the desired final concentration of compound to be tested, create a 500× dilution plate. Add DMSO, but not inhibitor, to each well of Column 1. […] Add compounds of interest at 500× desired final concentration to wells A3-A10. […] Dilute contents of Row A 1:3 in Row B, then continue through Rows C-H.
Add 4 μL 5 mM control compound to Media Plate wells A1-D1 for determination of full inhibition.
With a multichannel pipettor, mix each well of Media Plate several times to insure homogeneity. […] Next, place Medium Plate and Cell Plate in the incubator.
Trypsinize and count H4-APPsw cells. Dilute cells 6×10^5 cells/mL in Culture Medium and remove Cell Plate from incubator. Vortex cells to homogeneity, then using a multichannel repeating pipettor, add 100 μL cell suspension to Cell Plate, adding cells from Row H to Row A. Place Cell Plate in incubator.
Change media in Cell Plate.
After 5 h, check Cell Plate by microscope to insure cells are attached. In culture hood, remove media from Cell Plate using multichannel repeating pipettor. Add 100 μl Culture Medium to each well. Remove Media Plate from incubator and mix with pipettor as previous. Add 100 μl from each well of Media Plate to corresponding well in Cell Plate. Place Cell Plate in incubator overnight.
Perform ELISA to determine levels of secreted Aβ 1-40.
After 16 h incubation, spin Cell Plate for 8 min at 1200 rpm. The primary reading of Aβ 1-40 levels is done using PerkinElmer AlphaLISA technology. Follow the manufacturer's protocol for performing AlphaLISA in a white ½ area Optiwell plate using Row 12 for peptide standard (1:2 dilutions, starting at 15 ng/ml). Data are acquired using PerkinElmer Fusion-Alpha FP-HT, Alpha protocol (Count Time 0.6s, Count Time Ratio 30%:70%).
Export data from Fusion using Columnar Report format into a separate file for each plate. Upload data into Activity Base using RIA-DOSE-RESPONSE protocol (Version 1). Data from at least eight doses were fitted to a four parameter logistical model using XLfit software to determine potency.

[3] = footnote a: protocols described in Example 434A, read-out: IC50

Sequence of truncated human beta-secretase (residues 1-458, His6-tagged at the C-terminus) (P56817 22-458): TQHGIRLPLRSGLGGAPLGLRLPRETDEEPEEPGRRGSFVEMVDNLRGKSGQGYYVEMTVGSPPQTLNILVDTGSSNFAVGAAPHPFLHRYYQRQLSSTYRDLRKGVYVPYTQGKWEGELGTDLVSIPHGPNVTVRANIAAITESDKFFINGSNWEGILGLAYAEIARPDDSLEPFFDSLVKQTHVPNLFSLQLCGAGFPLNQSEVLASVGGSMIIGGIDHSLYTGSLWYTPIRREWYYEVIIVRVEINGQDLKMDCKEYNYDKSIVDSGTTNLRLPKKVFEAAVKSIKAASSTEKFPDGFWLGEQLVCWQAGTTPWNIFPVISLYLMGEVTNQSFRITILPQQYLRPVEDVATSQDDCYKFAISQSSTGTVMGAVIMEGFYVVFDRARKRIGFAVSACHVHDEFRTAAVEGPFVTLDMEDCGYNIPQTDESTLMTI

| IC50 [1, 3] [nM] | SMILES | further results |
| --- | --- | --- |
| 18.7 | COC1CCC2(CC1)Cc1ccc(-c3cccc(C(F)(F)F)c3)cc1C21N=C(N)N(C)O1 (stereo not drawn) [Compound 20] | IC50 [2]: < 500 nM |
| 4700 | CN1OC2(CC3(CCOCC3)c3ccc(-c4cccc(C#N)c4)cc32)N=C1N (stereo not drawn) [Compound 69, 3-(spiro[spiro[2,3-dihydro-indene-3,1′-(4-oxacyclohexane)]-1,5′-(3-amino-2-methyl-2H-[1,2,4]oxadiazole)]-6-yl)benzonitrile] |  |
|  | CN1OC2(N=C1N)c1cc(C#CC3CC3)ccc1CC21CCC(OC(F)F)CC1 (stereo not drawn) [Compound 99] | IC50 [1]: 2.4 nM |
| 14.6 | COC1CCC2(CC1)Cc1ccc(-c3cc(C)cc(C)c3)cc1C21N=C(N)N(C)O1 (stereo not drawn) [Compound 19] | IC50 [2]: < 500 nM |
|  | CN1C(=O)C2(N=C1N)c1cc(-c3cc(F)cc(Cl)c3)ccc1CC21CCc2ccccc2CC1 (stereo not drawn) [Compound 26] | IC50 [2]: < 5000 nM |
|  | CN1OC2(N=C1N)c1cc(Br)ccc1CC21CCc2ccccc2CC1 (stereo not drawn) [Compound 31] | IC50 ([1]; read-out: IC50): 64 nM; IC50 [2]: < 5000 nM |
| 2 | COC1CCC2(CC1)Cc1ccc(C#CC3CC3)cc1C21N=C(N)N(Cc2ccccc2)C1=O (stereo not drawn) [Compound 142] |  |
| 2.1 | COC1CCC2(CC1)Cc1ccc(C#CC3CC3)cc1C21N=C(N)N(C)C1=O (stereo not drawn) [Compound 76] |  |
| 126 | COC1CCC2(CC1)Cc1ccc(-c3ccc4cc[nH]c4c3)cc1C21N=C(N)N(C)O1 (stereo not drawn) [Compound 37] |  |
| 694 | COC1CCC2(CC1)Cc1ccc(C#CC3CC3)cc1[C@@]21N=C(N)N(C)C1=O (stereo partly drawn) [Compound 477] |  |
| 3260 | CN1OC2(N=C1N)c1cc(-c3cccc(C#N)c3)ccc1CC21Cc2cccc3cccc(c23)C1 (stereo not drawn) [Compound 61] |  |
|  | CN1C(=O)C2(N=C1N)c1cc(Br)ccc1CC21CCc2ccccc2CC1 (stereo not drawn) [Compound 56] | IC50 [2]: < 5000 nM |
| 26.2 | COC1CCC2(CC1)Cc1ccc(-c3cccc(C#N)c3)cc1C21N=C(N)N(C)O1 (stereo not drawn) [Compound 25] | IC50 [2]: < 100 nM |
|  | CN1OC2(N=C1N)c1ccccc1CC21CCc2ccccc2CC1 (stereo not drawn) [Compound 35] | IC50 [2]: < 1000 nM |
| 74.1 | COC1CCC2(CC1)Cc1ccc(-c3cc(F)ccc3C)cc1C21N=C(N)N(C)O1 (stereo not drawn) [Compound 32] |  |
| 2.6 | COC1CCC2(CC1)Cc1ccc(-c3cc(F)cc(Cl)c3)cc1C21N=C(N)N(C)O1 (stereo not drawn) [Compound 1] | IC50 [2]: < 100 nM |
| 293 | CN1OC2(N=C1N)c1cc(-c3cccc(C#N)c3)ccc1CC21CCCc2ccccc2C1 (stereo not drawn) [Compound 46] | IC50 [2]: < 10000 nM |
| 936 | CO[C@H]1CC2(Cc3ccc(-c4cccc(C#N)c4)cc3C23N=C(N)N(C)O3)C[C@H]1OC (stereo partly drawn) [Compound 57] | IC50 [2]: < 5000 nM |
| 76.7 | COC1CCC2(CC1)Cc1ccc(-c3cncs3)cc1C21N=C(N)N(C)O1 (stereo not drawn) [Compound 116] |  |
| 196 | COc1cncc(-c2ccc3c(c2)C2(N=C(N)N(C)O2)C2(CCC(OC)CC2)C3)n1 (stereo not drawn) [Compound 111] |  |
| 58.6 | Cc1onc2c1CC1(CC2)Cc2ccc(-c3cccnc3)cc2C12N=C(N)N(C)O2 (stereo not drawn) [Compound 451] |  |
| 2.8 | Cc1onc2c1CC1(CC2)Cc2ccc(C#CC3CC3)cc2C12N=C(N)N(C)C2=O (stereo not drawn) [Compound 467] |  |

| IC50 [1, 3] [nM] | SMILES | further results |
| --- | --- | --- |
| 493 | CO[C@H]1CC[C@]2(CC1)Cc1c(F)cccc1C21N=C(N)N(C)C1=O (stereo partly drawn) [Compound 249] |  |
| 15.6 | CCN1C(=O)C2(N=C1N)c1cc(C#CC3CC3)ccc1CC21CCC(OC)CC1 (stereo not drawn) [Compound 138] |  |
| 24.6 | COC1CCC2(CC1)Cc1ccc(C#CC(C)(C)C)cc1C21N=C(N)N(C)O1 (stereo not drawn) [Compound 113] |  |
| 33.1 | COC1CCC2(CC1)Cc1ccc(C3=CC(O)CC3)cc1C21N=C(N)N(C)C1=O (stereo not drawn) [Compound 476] |  |
|  | CN1OC2(N=C1N)c1cc(-c3cccc(C#N)c3)ccc1CC21C=CC(c2ccccc2)C1 (stereo not drawn) [Compound 53] | IC50 [2]: < 50000 nM |
| 80.4 | COC1CCC2(CC1)Cc1ccc(C#Cc3ccccc3)cc1C21N=C(N)N(C)O1 (stereo not drawn) [Compound 112] |  |
| 207 | CN1C(=O)C2(N=C1N)c1cc(C#CC3CC3)ccc1CC21CCC(O)CC1 (stereo not drawn) [Compound 151] |  |
| 9.7 | COC1CCC2(CC1)Cc1ccc(C#CC3CCCC3)cc1C21N=C(N)N(C)O1 (stereo not drawn) [Compound 114] |  |
| 3880 | CN1OC2(N=C1N)c1cc(-c3cccc(C#N)c3)ccc1CC21CCC(NCC(F)(F)F)CC1 (stereo not drawn) [Compound 97] |  |
| 17.4 | COC1CCC2(CC1)Cc1ccc(CCC3CC3)cc1C21N=C(N)N(C)O1 (stereo not drawn) [Compound 117] |  |
|  | CN1C(=O)C2(N=C1N)c1cc(-c3cccc(C#N)c3)ccc1CC21CCc2ccccc2CC1 (stereo not drawn) [Compound 29] | IC50 [2]: < 500 nM |
| 21 | CCOC1CCC2(CC1)Cc1ccc(C#CC3CC3)cc1C21N=C(N)N(C)O1 (stereo not drawn) [Compound 24] |  |
| 2.2 | COC1CCC2(CC1)Cc1ccc(C#CC3CC3)cc1[C@]21N=C(N)N(C)C1=O (stereo partly drawn) [Compound 478] |  |
| 4110 | CO[C@H]1CC2(Cc3ccc(-c4cccc(C#N)c4)cc3C23N=C(N)N(C)O3)C[C@H]1OC (stereo partly drawn) [Compound 62] |  |
| 29.2 | COC1CCC2(CC1)Cc1ccc(C#CC3CC3)cc1C21N=C(N)NC1=O (stereo not drawn) [Compound 264] |  |
| 3320 | CN1OC2(N=C1N)c1cc(-c3cccc(C#N)c3)ccc1CC21CCC(NCC(F)(F)F)CC1 (stereo not drawn) [Compound 98] |  |
| 16.7 | Cc1onc2c1CC1(CC2)Cc2ccc(C#CC3CC3)cc2C12N=C(N)N(C)O2 (stereo not drawn) [Compound 468] |  |
| 466 | CN1OC2(N=C1N)c1cc(-c3cccc(C#N)c3)ccc1CC21CCOCC1 (stereo not drawn) [Compound 51, 3-(spiro[spiro[2,3-dihydro-indene-2,1′-(4-oxacyclohexane)]-1,5′-(3-amino-2-methyl-2H-[1,2,4]oxadiazole)]-6-yl)benzonitrile] |  |
|  | CN1OC2(N=C1N)c1cc(-c3cccnn3)ccc1CC21CCc2ccccc2CC1 (stereo not drawn) [Compound 121] | IC50 ([1]; read-out: IC50): 56.2 nM |
| 4.7 | CN1OC2(N=C1N)c1cc(-c3cccc(C#N)c3)ccc1CC21CCC(OC(F)F)CC1 (stereo not drawn) [Compound 100] |  |
| 3 | CN1C(=O)C2(N=C1N)c1cc(C#CC3CC3)ccc1CC21CCC(O)CC1 (stereo not drawn) [Compound 150] |  |

| SMILES | IC50 [1, 3] [nM] | further results |
| --- | --- | --- |
| CN1OC2(N=C1N)c1cc(-c3ccnnc3)ccc1CC21CCc2ccccc2CC1 (stereo not drawn) [Compound 122] | 42.5 |  |
| COC1CCC2(CC1)Oc1ccc(-c3cccc(C#N)c3)cc1C21N=C(N)N(C)O1 (stereo not drawn) [Compound 68] | 1780 |  |
| CN1OC2(N=C1N)c1cc(-c3cccc(C#N)c3)ccc1CCC21CCc2ccccc2CC1 (stereo not drawn) [Compound 63] | 5050 |  |
| CN1OC2(N=C1N)c1cc(-c3cccc(C#N)c3)ccc1CC21CCc2c(F)cccc2C1 (stereo not drawn) [Compound 54] | 618 | IC50 [2]: < 5000 nM |
| COC1CCC2(CC1)Cc1ccc(-c3cnccn3)cc1C21N=C(N)N(C)O1 (stereo not drawn) [Compound 109] | 23.6 |  |
| COC1CCC2(CC1)Cc1ccc(OCC3CC3)cc1C21N=C(N)N(C)O1 (stereo not drawn) [Compound 110] | 14.6 |  |
| CN1OC2(N=C1N)c1cc(-c3cccc(C#N)c3)ccc1CC21CCc2cnncc2CC1 (stereo not drawn) [Compound 456] | 877 |  |
| COC1CCC2(CC1)Cc1ccc(-c3ccnnc3)cc1C21N=C(N)N(C)O1 (stereo not drawn) [Compound 108] | 156 |  |
| CN1OC2(N=C1N)c1cc(Br)ccc1OC21CCc2ccccc2CC1 (stereo not drawn) [Compound 67] | 138 |  |
| CO[C@H]1CC[C@@]2(CC1)Cc1ccc(-c3cccc(C#N)c3)cc1C21CC(=O)N(C)C(N)=N1 (stereo partly drawn) [Compound 65] | 50000 |  |
| Cc1ccc2c(c1)C1(N=C(N)N(C)O1)C1(CCc3ccccc3CC1)C2 (stereo not drawn) [Compound 104] | 255 |  |
| COC1CCC2(CC1)Cc1ccc(Br)cc1C21N=C(N)N(C)O1 (stereo not drawn) [Compound 95] | 137 |  |
| CN1OC2(N=C1N)c1cc(C#CC3CC3)ccc1CC21CCc2ccccc2CC1 (stereo not drawn) [Compound 105] | 8.4 |  |
| COC1CCC2(CC1)Cc1ccc(C#CC(F)(F)F)cc1C21N=C(N)N(C)O1 (stereo not drawn) [Compound 115] | 3.7 |  |
| CCOC1CCC2(CC1)Cc1ccc(-c3cccc(C#N)c3)cc1C21N=C(N)N(C)O1 (stereo not drawn) [Compound 82] | 432 |  |
